Measurements as given in patent publication US20180305458A1, “METHODS AND PHARMACEUTICAL COMPOSITIONS FOR THE TREATMENT OF AUTOIMMUNE INFLAMMATORY DISEASES” (INSERM (INSTITUT NATIONAL DE LA SANTÉ ET DE LA RECHERCHE …, priority 2015, published 2018).

Columns and labels:
Format in all cases: in vivo
[1] = test system: chronic pancreatitis mice model induced by cerulein; assay: Cerulein-induced chronic pancreatitis mice model; details: OxA 1.40 μmol/Kg 2 ip injections/week
Excerpt: FIG. 7. Pancreatic lymphocyte infiltration determined by immunostaining of CD45+ cells. Values were expressed as percentage of stained surface. **, p<0.01
FIG. 8. Amylase activity in blood samples of control mice, cerulein-induced mice and cerulein-induced mice treated with OxA. *, p<0.05; ***, p<0.001 and NS=non-significant.
We have investigated the effect of orexin A (OxA) on chronic pancreatitis mice model induced by supraphysiologic doses of cerulein (3 intraperitoneal injections/week at 100 μg/kg). […] In mice treated by OxA (2 intraperitoneal injections/week at 1.40 μmol/Kg) the lesions induced by cerulein improved. OxA-treated mice had lower number of acino-ductal metaplasia.

[2] = test system: IFNγ and IL-17 gene expression; assay: Th1 (IFNγ) and Th17 (IL-17) cytokine gene expression in brain of EAE mice, RT-qPCR; details: 30 days after EAE induction, OxA 300 μg IP or RO, vs PBS
Method: FIG. 4. […] It was determined 30 days after EAE induction of PBS, OxA300 RO, and OxA300 IP mice (from FIG. 2, panel C) by real time RT-qPCR as previously described (Proc Natl Acad Sci USA. 106(6):2012-7, 2009). *P<0.05 (nonparametric t-test, compared to PBS group).

[3] = test system: EAE mice (C57BL/6 wild-type); assay: EAE (MOG35-55 induced) clinical score in mice; details: orexin A 100 or 300 μg per mouse for 5 days, IP or retro-orbital, before onset or at moderate EAE score, scale 0-5
Method: FIG. 2. […] EAE was induced with 100 μg of MOG35-55 (Myelin Oligodendrocyte Glycoprotein 35-55) as previously described (Proc Natl Acad Sci USA. 106(6):2012-7, 2009) to 9 week old female C57BL/6 wild-type (WT) mice (n=10/group). Panels show clinical signs of EAE scored daily in a blinded fashion for over 30 days on a scale of 0-5 as follows: 0, no detectable clinical signs, 1, waddling gait with limp tail, 2, ataxia with full paralysis of one limb, 3, full paralysis of two limbs, 4, full paralysis of two limbs with important weight loss (>20% of initial weight) and 5, moribund or dead. Then, mice were given:
Panel A, intraperitoneally (IP) either PBS (group PBS IP), 100 μg of orexin A per mouse for 5 days on day 3 (=before the onset, group BOxA100 IP) or at a moderate EAE score (=1.5-2 for group OxA100 IP).
Panel B, intraperitoneally either PBS (group PBS), 100 μg (group OxA100 IP) or 300 μg (group OxA300 IP) of orexin A per mouse for 5 days at a moderate EAE score (=1.5-2).
Panel C, either PBS (group PBS), 300 μg of orexin A per mouse intraperitoneally (group OxA300 IP) or retro-orbitally (RO) (group OxA300 RO) for 5 days at a moderate EAE score (=1.5-2).
The EAE score is shown as mean+/−SEM. *P<0.05 (nonparametric t-test, compared to PBS group).
Orexin A ameliorates the DAI (weight and colitis score) of DSS-induced colitis mice. […]

regulatory T cell (Treg) = assay: Regulatory T cells in draining lymph nodes of EAE mice, flow cytometry; details: day 30 post-immunization, OxA 300 μg IP or RO, vs PBS
Method: FIG. 5. […] On day 30 post-immunization, draining lymph nodes were harvested from the naïve, PBS, OxA300 RO, and OxA300 IP groups (FIG. 2, panel C). Assessment by flow cytometry was performed by using the mouse regulatory T cell staining kit: lymph node Tregs were defined as CD4^+CD25^+Foxp3^+ cells and proliferative Tregs as CD4^+CD25^+Foxp3^+Ki67^+ cells.
Histograms represent the mean of the percentage (left) and the total number (right) of Tregs and proliferative Tregs (Ki67^+Tregs) for each group. Bars represent the mean+/−SEM of 5 individual mice. *P<0.05 (non parametric t-test, compared to PBS group).

DSS-induced colitis mice = assay: DSS-induced colitis in mice, DAI score; details: 5% DSS orally 7 days, OxA 0.22 μmoles/kg daily intraperitoneal, scale 0 to 4
Excerpt: FIG. 1. Orexin A ameliorates the DAI (weight and colitis score) of DSS-induced colitis mice. Mice were orally treated with 5% DSS for 7 days in the presence or in the absence of daily intraperitoneal injection of OxA (0.22 μmoles/kg). DAI score including weight loss, severity of diarrhea, the presence of blood in the stool, inflammation and edema was estimated using a scale ranging from 0 (no symptoms) to 4 (severe colitis). DSS, dextran sulfate sodium; WT, wild type mice.
Orexin A ameliorates the DAI (weight and colitis score) of DSS-induced colitis mice. As shown in FIG. 1 when DSS-induced colitis mice were treated with OxA, the DAI score was ameliorated (about of 1.5). […] Therefore, orexin A presents potent intrinsic anti-inflammatory properties, capable of modulating the Th/Treg homeostasis during an auto-immune response as aggressive as in a chronic EAE model.

EAE mice spinal cord = assay: Spinal cord histopathology of EAE mice; details: 30 days post-immunization, OxA 300 μg IP or RO, grading 0-4, vs PBS
Method: FIG. 3. […] 30 days post-immunization, mice (from the PBS, OxA300 RO, and OxA300 IP groups of FIG. 2, panel C) were sacrificed and spinal cords were harvested, fixed overnight in 4% paraformaldehyde and stored in 70% ethanol. Spinal cords were then embedded in paraffin and cut in […] section. After haematoxylin/eosin (to distinguish cell infiltration) and luxol fast blue (to label myelin) staining, photography was performed at ×1.25 and ×10 magnifications for the spinal cord sections of PBS, OxA300 RO and OxA300 IP mice. […] Histopathology grading was as follows: 0-normal appearance, 1—some infiltrated cells and low demyelination, 2—2 or 3 infiltrated areas and low demyelination, 3—numerous infiltrated areas and strong demyelination, 4—important cell infiltration throughout the tissue with strong demyelination. *P<0.05 (nonparametric t-test, compared to PBS group).

## Orexin A: neuropeptide, endogenous ligand of OX1R and OX2R; SEQ ID NO:2 peplpdccrqk tcscrlyell hgagnhaagi ltlx
[1]; 3 weeks cerulein 100 μg/kg 3 ip injections/week
  lesions induced by cerulein (pancreas histology): improved
[1]; cerulein mice
  amylase activity in blood samples: significantly reduced
  number of acino-ductal metaplasia: lower number
[1]; cerulein mice, quantitative imaging analysis, 18% in OxA-untreated mice
  pancreatic lymphocyte infiltration (anti-CD45 immunohistochemistry): 6 % of the pancreatic surface
[1]; cerulein mice, quantitative imaging analysis, 40% in OxA-untreated mice
  pancreatic fibrosis on Picrosirius staining: 12 % of the pancreatic surface
[2]
  Th1/Th17 pro-inflammatory responses (IFNγ, IL-17 gene expression) in CNS tissues: efficiently suppresses
[2]; listed as orexin A
  Th1/Th17 pro-inflammatory responses (IFNγ, IL-17 gene expression) in CNS tissues: drastic reduction
[3]
  clinical features of EAE (EAE score): dramatically alleviate
[3]; listed as orexin A
  clinical features of EAE (EAE score): significantly ameliorated
Regulatory T cell (Treg)
  regulatory T cell (Treg) proportion: increased
Regulatory T cell (Treg); listed as orexin A
  regulatory T cell (Treg) proportion: increase
DSS-induced colitis mice
  DAI score (weight and colitis score): ameliorates
DSS-induced colitis mice; listed as OxA
  DAI score (weight and colitis score): ~1.5
EAE mice spinal cord
  histopathological EAE score: significantly decreases
EAE mice spinal cord; listed as orexin A
  histopathological EAE score: drastic reduction
